# Assays:
# Assay in all cases: relative viability (nuclei count vs DMSO), 5 days (fraction); higher = more cells survive
# BAY61-3606 + Pemetrexed = compound: COC1=C(C=C(C=C1)C2=CC3=NC=CN3C(=N2)NC4=C(C=CC=N4)C(=O)N)OC [BAY61-3606] + Nc1nc2[nH]cc(CCc3ccc(C(=O)N[C@@H](CCC(=O)O)C(=O)O)cc3)c2c(=O)[nH]1 [Pemetrexed] (partner 0.2 µM)
# How it was run: (§1)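 For relative viability, nuclei counts in treated wells were divided by those in vehicle wells. Lung cancer cell lines had been pin-tool dosed in 1536-well plates the day after seeding and cultured for 5 days, then fixed and stained in one step (final 0.05% Triton X-100, 1% formaldehyde, 1 ug/ml Hoechst) and imaged at 4×. Doses were one drug alone or a fixed anchor-drug dose plus five library-drug doses (not always all listed) in √10 steps, and values are duplicate-plate medians.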
# BAY61-3606 + Crizotinib = compound: COC1=C(C=C(C=C1)C2=CC3=NC=CN3C(=N2)NC4=C(C=CC=N4)C(=O)N)OC [BAY61-3606] + C[C@@H](Oc1cc(-c2cnn(C3CCNCC3)c2)cnc1N)c1c(Cl)ccc(F)c1Cl [Crizotinib] (partner 1 µM)
# How it was run: as §1
# BAY61-3606 + Luminespib = compound: COC1=C(C=C(C=C1)C2=CC3=NC=CN3C(=N2)NC4=C(C=CC=N4)C(=O)N)OC [BAY61-3606] + CCNC(=O)c1noc(-c2cc(C(C)C)c(O)cc2O)c1-c1ccc(CN2CCOCC2)cc1 [Luminespib] (partner 0.01 µM)
# How it was run: as §1
# Doxorubicin + OSI-027 = compound: COc1cccc2c1C(=O)c1c(O)c3c(c(O)c1C2=O)C[C@@](O)(C(=O)CO)C[C@@H]3O[C@H]1C[C@H](N)[C@H](O)[C@H](C)O1 [Doxorubicin] + COc1cccc2cc(-c3nc([C@H]4CC[C@H](C(=O)O)CC4)n4ncnc(N)c34)[nH]c12 [OSI-027] (partner 0.5 µM)
# How it was run: as §1
Cell Line,relative viability (BAY61-3606 + Pemetrexed; first compound 0.02 µM),relative viability (BAY61-3606 + Pemetrexed; first compound 0.06325 µM),relative viability (BAY61-3606 + Pemetrexed; first compound 0.2 µM),relative viability (BAY61-3606 + Pemetrexed; first compound 0.6325 µM),relative viability (BAY61-3606 + Pemetrexed; first compound 2 µM),relative viability (BAY61-3606 + Crizotinib; first compound 0.02 µM),relative viability (BAY61-3606 + Crizotinib; first compound 0.06325 µM),relative viability (BAY61-3606 + Crizotinib; first compound 0.2 µM),relative viability (BAY61-3606 + Crizotinib; first compound 0.6325 µM),relative viability (BAY61-3606 + Crizotinib; first compound 2 µM),relative viability (BAY61-3606 + Luminespib; first compound 0.02 µM),relative viability (BAY61-3606 + Luminespib; first compound 0.06325 µM),relative viability (BAY61-3606 + Luminespib; first compound 0.2 µM),relative viability (BAY61-3606 + Luminespib; first compound 0.6325 µM),relative viability (BAY61-3606 + Luminespib; first compound 2 µM),relative viability (Doxorubicin + OSI-027; first compound 0.001 µM),relative viability (Doxorubicin + OSI-027; first compound 0.003162 µM),relative viability (Doxorubicin + OSI-027; first compound 0.01 µM),relative viability (Doxorubicin + OSI-027; first compound 0.03162 µM),relative viability (Doxorubicin + OSI-027; first compound 0.1 µM)
H3255,0.587,0.546,0.598,0.626,0.593,0.922,0.854,0.902,1.05,0.752,0.966,0.896,0.951,1.06,0.961,0.641,0.517,0.629,0.581,0.594
NCI-H1915,0.546,0.544,0.488,0.447,0.453,0.899,0.914,0.857,0.868,0.707,0.777,0.86,0.686,0.731,0.369,0.532,0.674,0.667,0.628,0.659
NCI-H1651,0.608,0.544,0.492,0.537,0.531,0.882,0.873,0.846,0.869,0.777,1.03,0.869,0.664,1.13,0.603,0.682,0.679,0.554,0.298,0.22
NCI-H2126,0.708,0.654,0.639,0.713,0.58,1.06,1.01,1,0.973,0.893,0.964,0.916,0.869,1.07,0.731,0.538,0.701,0.642,0.662,0.651
HCC-44,0.613,0.692,0.682,0.659,0.651,0.749,0.829,0.777,0.907,0.823,1.1,–,1.17,1.24,0.997,0.35,0.575,0.63,0.381,0.322
RERF-LC-KJ,0.467,0.463,0.501,0.484,0.432,0.826,0.777,0.817,0.819,0.785,1.22,1.45,1.2,1.3,0.849,0.643,0.556,0.544,0.302,0.261
LXF-289,0.94,0.939,0.901,0.946,0.907,0.753,0.82,0.795,0.821,0.81,0.772,0.578,0.648,0.551,0.561,0.613,0.832,0.794,0.834,0.819
NCI-H838,0.257,0.256,0.234,0.254,0.211,0.82,0.661,0.814,0.866,0.398,0.368,0.24,0.347,0.259,0.28,0.421,0.429,0.387,0.39,0.328
HCC-827,0.274,0.295,0.274,0.254,0.262,0.938,0.952,0.942,0.974,0.965,0.492,0.587,0.572,0.743,0.31,0.725,0.714,0.796,0.671,0.754
NCI-H1792,1.07,1.09,0.852,0.771,0.614,0.944,1.03,0.777,0.947,1.08,0.462,0.404,0.439,0.581,0.274,–,0.674,0.713,0.709,0.625
NCI-H460,0.0615,0.0666,0.0787,0.0676,0.0667,0.952,0.72,0.913,0.846,0.182,0.0381,0.0387,0.0289,0.0296,0.0322,0.614,0.41,0.482,0.0685,0.0255
NCI-H3122,0.208,0.219,0.211,0.187,0.201,0.252,0.286,0.279,0.272,0.219,0.121,0.0764,0.0868,0.099,0.0933,0.489,0.89,0.819,0.382,0.314
NCI-H2347,0.429,0.424,0.438,0.418,0.403,0.749,0.589,0.781,0.848,0.756,0.373,0.362,0.386,0.658,0.412,0.469,0.405,0.433,0.523,0.35
NCI-H1650,0.351,0.356,0.42,0.46,0.331,0.936,1.08,0.866,1,0.385,0.182,0.184,0.191,0.203,0.208,0.496,0.567,0.394,0.153,0.144
NCI-H1944,0.677,0.565,0.644,0.583,0.518,1.08,1.04,0.912,1.07,0.637,0.802,0.674,0.734,0.688,0.282,0.317,0.46,0.473,0.358,0.366
EKVX,0.439,0.368,0.401,0.495,0.346,0.972,0.868,0.976,1.15,0.806,0.999,0.927,0.844,0.897,0.843,0.727,0.66,0.702,0.639,0.695

Cell Line,relative viability (BAY61-3606 + Pemetrexed; first compound 0.02 µM),relative viability (BAY61-3606 + Pemetrexed; first compound 0.06325 µM),relative viability (BAY61-3606 + Pemetrexed; first compound 0.2 µM),relative viability (BAY61-3606 + Pemetrexed; first compound 0.6325 µM),relative viability (BAY61-3606 + Pemetrexed; first compound 2 µM),relative viability (BAY61-3606 + Crizotinib; first compound 0.02 µM),relative viability (BAY61-3606 + Crizotinib; first compound 0.06325 µM),relative viability (BAY61-3606 + Crizotinib; first compound 0.2 µM),relative viability (BAY61-3606 + Crizotinib; first compound 0.6325 µM),relative viability (BAY61-3606 + Crizotinib; first compound 2 µM),relative viability (BAY61-3606 + Luminespib; first compound 0.02 µM),relative viability (BAY61-3606 + Luminespib; first compound 0.06325 µM),relative viability (BAY61-3606 + Luminespib; first compound 0.2 µM),relative viability (BAY61-3606 + Luminespib; first compound 0.6325 µM),relative viability (BAY61-3606 + Luminespib; first compound 2 µM),relative viability (Doxorubicin + OSI-027; first compound 0.001 µM),relative viability (Doxorubicin + OSI-027; first compound 0.003162 µM),relative viability (Doxorubicin + OSI-027; first compound 0.01 µM),relative viability (Doxorubicin + OSI-027; first compound 0.03162 µM),relative viability (Doxorubicin + OSI-027; first compound 0.1 µM)
NCI-H1355,1.1,1.03,0.977,1.11,0.924,1.08,1.04,1.05,1.07,0.81,0.736,0.657,0.694,0.727,0.413,0.374,0.422,0.396,0.432,0.389
NCI-H2228,0.326,0.325,0.391,0.393,0.369,0.483,0.405,0.526,0.378,0.478,0.13,0.175,0.125,0.199,0.177,0.35,0.62,0.414,0.274,0.209
NCI-H596,0.454,0.511,0.534,0.555,0.486,0.969,1.01,1.08,1.19,0.931,0.941,1.14,0.929,1.3,0.62,0.578,0.801,0.799,0.647,0.721
SK-MES-1,1.03,0.909,0.869,0.88,0.713,1.01,0.971,0.962,0.966,0.876,0.862,0.759,0.791,0.805,0.304,0.637,0.719,0.516,0.174,0.129
EPLC-272H,0.374,0.299,0.319,0.374,0.278,1.03,0.762,0.89,0.87,0.811,0.33,0.424,0.801,0.131,0.138,0.29,0.275,0.255,0.272,0.28
PC-14,0.159,0.136,0.134,0.137,0.148,0.855,0.803,0.865,0.974,0.757,0.191,–,0.171,0.173,0.129,0.683,1.14,0.865,0.161,0.0612
SW 1573,0.924,0.833,0.804,0.916,0.53,0.802,0.65,0.745,0.785,0.588,0.192,0.204,0.197,0.214,0.204,0.527,0.513,0.316,0.125,0.103
COR-L 105,1.24,1.13,1.11,0.994,0.968,0.762,0.569,0.674,0.541,0.421,0.827,0.689,0.75,0.76,0.503,0.71,0.623,0.556,0.428,0.34
NCI-H322M,0.598,0.627,0.634,0.637,0.538,0.901,0.756,0.853,0.842,1.01,0.879,0.806,0.818,0.819,0.742,0.414,0.493,0.566,0.556,0.378
PC-3 [JPC-3],1.12,1.05,1.21,1.13,1.04,1.03,0.961,0.979,0.96,0.944,–,0.81,0.746,0.659,0.709,0.797,0.729,0.747,0.733,0.801
NCI-H1975,0.288,0.289,0.308,0.269,0.247,0.921,0.947,0.907,0.888,0.585,0.18,0.199,0.268,0.247,0.119,0.637,0.715,0.685,0.497,0.256
CAL-12T,1.29,1.38,1.22,1.22,0.742,0.619,0.537,0.493,0.364,0.205,0.49,0.439,0.209,0.789,0.187,0.609,0.695,0.515,0.194,0.146
SK-LU-1,0.974,1.02,1.01,0.968,0.661,1.08,0.853,0.904,0.889,0.398,0.182,0.224,0.188,0.2,0.173,0.359,0.297,0.28,0.224,0.173
NCI-H650,0.958,0.904,0.892,1.01,0.797,0.725,0.331,0.701,0.669,0.47,0.925,0.751,0.766,0.927,0.652,0.574,0.544,0.59,0.522,0.495
NCI-H2170,0.285,0.268,0.278,0.258,0.269,1.27,1.27,1.19,1.16,0.87,0.796,0.717,0.761,0.852,0.506,0.25,0.809,0.745,0.614,0.795

# From the supplement of paper PMC10307832
